# Laboratory results published in ChEMBL document CHEMBL4152347 (J Med Chem, 2018).
# Assays:
# [1] = (§1) Drug level in cynomolgus monkey plasma treated with [14C]4-[(1R,3aS,5aR,5bR,7aR,11aS,11bR,13aR,13bR)-3a-[2-(1,1-dioxo-1,4-thiazinan-4-yl)ethylamino]-1-isopropenyl-5a,5b,8,8,11a-pentamethyl-1,2,3,4,5,6,7,7a,11,11b,12,13,13a,13b-tetradecahydrocyclopenta[a]chrysen-9-yl]benzoic acid at 5 mg/kg, po administered via gavage by LC-MS/MS analysis; type: ADME, organism-based, Macaca fascicularis; settings: in vivo
# [2] = as §1, with “human” for “cynomolgus monkey”; type: ADME, organism-based; settings: in vivo
# [3] = as §1, with “Sprague-Dawley rat” for “cynomolgus monkey”, “acid” for “acid at 5 mg/kg, po administered via gavage”; type: ADME, cell-free
# [4] = as §1, with “beagle dog” for “cynomolgus monkey”; type: ADME, organism-based, Canis lupus familiaris; settings: in vivo
# [5] = in vitro; settings: human, liver microsomes
# Description: Half life in human liver microsomes at 0.5 uM after 1 hr in presence of NADPH by LC-MS/MS analysis
# [6] = in vitro; settings: rat, liver microsomes
# Description: Half life in rat liver microsomes at 0.5 uM after 1 hr in presence of NADPH by LC-MS/MS analysis
# [7] = test system: Human immunodeficiency virus 1; assay: microbe, parasite or virus in culture; settings: Human immunodeficiency virus 1, MT2
# Description: Antiviral activity against wild type HIV1 infected in human MT2 cells after 4 to 5 days by dual luciferase reporter gene assay
# [8] = Dissociation constant, pKa of the compound; type: physicochemical
# [9] = test system: Human immunodeficiency virus 1; assay: microbe, parasite or virus in culture; settings: Human immunodeficiency virus 1, MT2; remark: listed apart in the source
# Description: Antiviral activity against HIV1 expressing gag delta V370 mutant infected in human MT2 cells after 4 to 5 days by dual luciferase reporter gene assay
# [10] = in vitro; settings: human, MT2 cells
# Description: Cytotoxicity against human MT2 cells assessed as reduction in cell viability
# [11] = test system: Human immunodeficiency virus 1; assay: microbe, parasite or virus in culture; settings: Human immunodeficiency virus 1, MT2; remark: listed apart in the source
# [12] = (§2) Drug metabolism in human plasma assessed as (2S,3S,4S,5R,6S)-6-[4-[(1R,3aS,5aR,5bR,7aR,11aS,11bR,13aR,13bR)-3a-[2-(1,1-dioxo-1,4-thiazinan-4-yl)ethylamino]-1-isopropenyl-5a,5b,8,8,11a-pentamethyl-1,2,3,4,5,6,7,7a,11,11b,12,13,13a,13b-tetradecahydrocyclopenta[a]chrysen-9-yl]benzoyl]oxy-3,4,5-trihydroxy-tetrahydropyran-2-carboxylic acid formation at 5 mg/kg, po administered via gavage by LC-MS/MS analysis; type: ADME, organism-based; settings: in vivo
# [13] = as §2, with “Sprague-Dawley rat” for “human”; type: ADME, organism-based; settings: in vivo
# [14] = as §2, with “beagle dog” for “human”; type: ADME, organism-based, Canis lupus familiaris; settings: in vivo
# [15] = Drug metabolism in beagle dog plasma assessed as mono-oxidation product formation at 5 mg/kg, po administered via gavage by LC-MS/MS analysis; type: ADME, organism-based, Canis lupus familiaris; settings: in vivo
# [16] = Drug metabolism in Sprague-Dawley rat plasma assessed as mono-oxidation product formation at 5 mg/kg, po administered via gavage by LC-MS/MS analysis; type: ADME, organism-based; settings: in vivo
# [17] = Drug metabolism in cynomolgus monkey plasma assessed as 4-((1R,3aS,5aR,5bR,7aR,11aS,11bR,13aR,13bR)-3a-amino-5a,5b,8,8,11a-pentamethyl-1-(prop-1-en-2-yl)-2,3,3a,4,5,5a,5b,6,7,7a,8,11,11a,11b,12,13,13a,13b-octadecahydro-1H-cyclopenta[a]chrysen-9-yl)benzoic acid formation at 5 mg/kg, po administered via gavage by LC-MS/MS analysis; type: ADME, organism-based, Macaca fascicularis; settings: in vivo
# [18] = (§3) Drug metabolism in human plasma assessed as 4-((1R,3aS,5aR,5bR,7aR,11aS,11bR,13aR,13bR)-3a-amino-5a,5b,8,8,11a-pentamethyl-1-(prop-1-en-2-yl)-2,3,3a,4,5,5a,5b,6,7,7a,8,11,11a,11b,12,13,13a,13b-octadecahydro-1H-cyclopenta[a]chrysen-9-yl)benzoic acid formation at 5 mg/kg, po administered via gavage by LC-MS/MS analysis; type: ADME, organism-based; settings: in vivo
# [19] = Drug metabolism in cynomolgus monkey plasma assessed as mono-oxidation product formation at 5 mg/kg, po administered via gavage by LC-MS/MS analysis; type: ADME, organism-based, Macaca fascicularis; settings: in vivo
# [20] = as §3, with “beagle dog” for “human”; type: ADME, organism-based, Canis lupus familiaris; settings: in vivo
# [21] = as §3, with “Sprague-Dawley rat” for “human”; type: ADME, organism-based; settings: in vivo
# [22] = Drug metabolism in cynomolgus monkey plasma assessed as (2S,3S,4S,5R,6S)-6-[4-[(1R,3aS,5aR,5bR,7aR,11aS,11bR,13aR,13bR)-3a-[2-(1,1-dioxo-1,4-thiazinan-4-yl)ethylamino]-1-isopropenyl-5a,5b,8,8,11a-pentamethyl-1,2,3,4,5,6,7,7a,11,11b,12,13,13a,13b-tetradecahydrocyclopenta[a]chrysen-9-yl]benzoyl]oxy-3,4,5-trihydroxy-tetrahydropyran-2-carboxylic acid formation at 5 mg/kg, po administered via gavage by LC-MS/MS analysis; type: ADME, organism-based, Macaca fascicularis; settings: in vivo
# [23] = Drug metabolism in human plasma assessed as mono-oxidation product formation at 5 mg/kg, po administered via gavage by LC-MS/MS analysis; type: ADME, organism-based; settings: in vivo
# [24] = physchem; settings: aqueous
# Description: Aqueous solubility of the compound
# [25] = in vivo; settings: Sprague-Dawley, rat, po, 5 mg/kg
# [26] = test system: Human immunodeficiency virus 1; assay: microbe, parasite or virus in culture; settings: Human immunodeficiency virus 1, MT2; remark: listed apart in the source
# Description: Antiviral activity against wild type HIV1 infected in human MT2 cells after 4 to 5 days in presence of 10% FBS and 40% human serum albumin by dual luciferase reporter gene assay
# [27] = Solubility of compound in fed state simulated intestinal fluid at pH 5; type: physicochemical
# [28] = Solubility of compound in fasted state simulated intestinal fluid at pH 6.5; type: physicochemical
# [29] = test system: Human immunodeficiency virus 1; assay: Ratio of EC50 for antiviral activity against wild type HIV1 infected in human MT2 cells after 4 to 5 days in presence of 10% FBS plus […] by dual luciferase reporter gene assay to EC50 for antiviral activity against wild type HIV1 infected in human MT2 cells after 4 to 5 days by dual luciferase reporter gene assay; type: functional
SMILES,"half-life at 1 h, 0.5 µM [5]","half-life at 1 h, 0.5 µM [6]",EC50 [7],pKa [8],EC50 [9],CC50 [10],EC50 [11],AUC(0-t) at 24 h [25],EC50 [26],other results
C=C(C)[C@@H]1CC[C@]2(NCCN3CCS(=O)(=O)CC3)CC[C@]3(C)[C@H](CC[C@@H]4[C@@]5(C)CC=C(c6ccc(C(=O)OC)cc6)C(C)(C)[C@@H]5CC[C@]43C)[C@@H]12,,,,,,,,,,Drug uptake [1]: Active; Drug uptake [2]: Active; Drug uptake [3]: Active; Drug uptake [4]: Active
C=C(C)[C@@H]1CC[C@]2(NCCN3CCC(F)(F)CC3)CC[C@]3(C)[C@H](CC[C@@H]4[C@@]5(C)CC=C(c6ccc(C(=O)O)cc6)C(C)(C)[C@@H]5CC[C@]43C)[C@@H]12,> 2 h,> 2 h,5.1 nM,8.5,67.5 nM,> 10000 nM,14.1 nM,,,
C=C(C)[C@@H]1CC[C@]2(N)CC[C@]3(C)[C@H](CC[C@@H]4[C@@]5(C)CC=C(c6ccc(C(=O)O)cc6)C(C)(C)[C@@H]5CC[C@]43C)[C@@H]12,,,,,,,,,,Drug uptake [1]: Active; Drug uptake [2]: Active; Drug uptake [3]: Active; Drug uptake [4]: Active
C=C(C)[C@@H]1CC[C@]2(NCCN3CCS(=O)(=O)CC3)CC[C@]3(C)[C@H](CC[C@@H]4[C@@]5(C)CC=C(c6ccc([14C](=O)O)cc6)C(C)(C)[C@@H]5CC[C@]43C)[C@@H]12,,,,,,,,,,Drug metabolism [12]: Metabolite_Detected; Drug metabolism [13]: Metabolite_Detected; Drug metabolism [14]: Metabolite_Detected; Drug metabolism [15]: Metabolite_Detected; Drug metabolism [16]: Metabolite_Detected; Drug metabolism [17]: Metabolite_Detected; Drug metabolism [18]: Metabolite_Detected; Drug metabolism [19]: Metabolite_Detected; Drug metabolism [20]: Metabolite_Detected; Drug metabolism [21]: Metabolite_Detected; Drug metabolism [22]: Metabolite_Detected; Drug metabolism [23]: Metabolite_Detected
C=C(C)[C@@H]1CC[C@]2(NCCN3CCOCC3)CC[C@]3(C)[C@H](CC[C@@H]4[C@@]5(C)CC=C(c6ccc(C(=O)O)cc6)C(C)(C)[C@@H]5CC[C@]43C)[C@@H]12,> 2 h,> 2 h,8.3 nM,8.2,47.4 nM,> 10000 nM,13.2 nM,,,
C=C(C)[C@@H]1CC[C@]2(NCCN3C[C@@H]4C[C@H]3CS4(=O)=O)CC[C@]3(C)[C@H](CC[C@@H]4[C@@]5(C)CC=C(c6ccc(C(=O)O)cc6)C(C)(C)[C@@H]5CC[C@]43C)[C@@H]12,> 2 h,> 2 h,1.9 nM,,7.7 nM,7340 nM,2.8 nM,27 µM·h,11.1 nM,solubility [24]: < 1 µg/mL
C=C(C)[C@@H]1CC[C@]2(NCCN3CCS(=O)(=O)CC3)CC[C@]3(C)[C@H](CC[C@@H]4[C@@]5(C)CC=C(c6ccc(C(=O)O)c(F)c6)C(C)(C)[C@@H]5CC[C@]43C)[C@@H]12,> 2 h,> 2 h,2.8 nM,,9.7 nM,7800 nM,3.4 nM,24.3 µM·h,12.8 nM,solubility [24]: < 1 µg/mL; solubility [27]: 330 µg/mL; solubility [28]: 140 µg/mL
C=C(C)[C@@H]1CC[C@]2(CNCCCN3CCS(=O)(=O)CC3)CC[C@]3(C)[C@H](CC[C@@H]4[C@@]5(C)CC=C(c6ccc(C(=O)O)cc6)C(C)(C)[C@@H]5CC[C@]43C)[C@@H]12,> 2 h,> 2 h,,5.4,,,,3.15 µM·h,,
C=C(C)[C@@H]1CC[C@]2(NCCN3CCCS(=O)(=O)CC3)CC[C@]3(C)[C@H](CC[C@@H]4[C@@]5(C)CC=C(c6ccc(C(=O)O)cc6)C(C)(C)[C@@H]5CC[C@]43C)[C@@H]12,> 2 h,> 2 h,3.6 nM,,,4900 nM,,,35.1 nM,Ratio EC50 [29]: 9.7
